What all share (experiment): inhibition of tumour cell growth, NCI panel, 48 h
For assay [1], the system named is SF-539.
Assay [2] relates to TK-10.
Assay [3] relates to CAKI-1.
For assay [4], the system named is DMS-114.
Assay [5] relates to LOX IMVI.
The test system of assay [6] is U-251.
In assay [7] the test system is K562.
Assay [8] has as its system SW-620.
The subject of assay [9] is OVCAR-5.
Assay [10] deals with RPMI-8226.
Assay [11] has as its system SF-268.
Assay [12] has as its system SF-295.
For assay [13], the system named is SN12C.
The subject of assay [14] is 786-0.
In assay [15] the test system is CCRF-CEM.

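How tested: cells in 96-well plates exposed to compound for 48 hours at five concentrations. GI50 marks 50% less growth.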 Activity calls are given as the source filed them. Rule as the data show it: active = GI50 up to about 1.1 µM and inactive = higher.

In the case of `Nc1ccc(C(=O)NN2C(=O)C(Cl)C2c2ccc(O)cc2)cc1` (centres undefined), the GI50 was 19.1 µM (inactive) in assay [1]; 44.3 µM (inactive) in [2]; 25.1 µM (inactive) in assay [3]; 13 µM (inactive) in assay [4]; 9.27 µM (inactive) in [5]; 16.1 µM (inactive) in assay [6]. Also, the GI50 in assay [7] is 21.3 µM (inactive); in assay [8], 23.3 µM (inactive); in assay [9] it was 21.7 µM (inactive); in assay [10], 49.1 µM (inactive); in assay [11] it was 13.4 µM (inactive); in assay [12], 33 µM (inactive). Also, the GI50 in [13] is 20.1 µM (inactive); in assay [14], 17.5 µM (inactive); in assay [15], 12.3 µM (inactive).

As to `CC(=O)C(CN(C(C)C)C(C)C)C(c1ccccc1)c1c(O)c2ccccc2oc1=O` (centres undefined), the GI50 in assay [1] is > 100 µM (inactive); in [2], > 100 µM (inactive); in [3], > 100 µM (inactive); in assay [4] it was > 100 µM (inactive); in [5], > 100 µM (inactive); in assay [6], 56.2 µM (inactive). The GI50 in assay [7], in assay [8], in assay [9], in assay [10], in assay [11] and in [12] was > 100 µM (inactive) throughout. The GI50 in assay [13], in [14] and in assay [15] was > 100 µM (inactive) each time.

With `COc1ccc(CCNCc2cccc(OC)c2OC)cc1OC`, the GI50 in assay [2], in [3], in assay [4], in assay [5], in assay [7] and in assay [8] was > 100 µM (inactive) in each case. Moreover, the GI50 in [9], in [10], in assay [11], in assay [12], in [13] and in [14] was > 100 µM (inactive) each time. In assay [15], the GI50 was > 100 µM (inactive).

Consider `CCOC(=O)C1S/C(=N\c2ccc(C)c(C)c2)N=C1C` (centres undefined), for which the GI50 in [1] is > 100 µM (inactive); in [2], > 100 µM (inactive); in assay [3], > 100 µM (inactive); in assay [4] it was > 100 µM (inactive); in [5] it was 75.2 µM (inactive); in assay [6] it was > 100 µM (inactive). The GI50 in [7] is 59.3 µM (inactive); in assay [8] it was > 100 µM (inactive); in assay [9], > 100 µM (inactive); in [10], 85.7 µM (inactive); in assay [11], > 100 µM (inactive); in assay [12], > 100 µM (inactive). Further, the GI50 in assay [13], in assay [14] and in assay [15] was > 100 µM (inactive) throughout.

For `CC1(C)C=C(N2CCN(C3=CC(C)(C)NC(C)(C)C3)CC2)CC(C)(C)N1`, the GI50 in [1], in assay [2], in assay [3], in assay [4], in assay [5] and in assay [6] was > 100 µM (inactive) in each case. Besides, the GI50 in assay [7], in assay [8], in [9], in assay [10], in assay [11] and in assay [12] was > 100 µM (inactive) each time. In addition, the GI50 in [13], in assay [14] and in assay [15] was > 100 µM (inactive) each time.

Regarding `COC(=O)C1=C(c2cc(OC)c(OC)c(OC)c2)OC(c2cc(OC)c(OC)c(OC)c2)C1` (centres undefined), the GI50 in assay [1] was 34.4 µM (inactive); in [2] it was 25 µM (inactive); in [3], 21.8 µM (inactive); in assay [4], 30.7 µM (inactive); in assay [5], 17.9 µM (inactive); in assay [6], 20.5 µM (inactive). The GI50 in assay [7] is 28.8 µM (inactive); in assay [8], 34.4 µM (inactive); in assay [9] it was 33.3 µM (inactive); in assay [10], 23.1 µM (inactive); in assay [11] it was 46.2 µM (inactive); in [12], 20.5 µM (inactive). Moreover, the GI50 in assay [13] is 19.2 µM (inactive); in [14], 24.8 µM (inactive); in [15], 24.1 µM (inactive).

Take `Cc1cc(Cl)ccc1NC(=O)CCCC(=O)C(C(=O)c1ccccc1)c1ccccc1` (centres undefined): the GI50 in assay [3], in [4], in [5], in assay [6], in assay [7] and in [9] was > 100 µM (inactive) each time. Also, the GI50 in assay [10], in assay [11], in assay [12], in assay [13], in [14] and in assay [15] was > 100 µM (inactive) each time.

For `C[C@]12CC[C@H](O)CC1=CC[C@@H]1C2CC[C@]2(C)C(=O)NC(=O)CC12` (some centres undefined), the GI50 is > 100 µM (inactive) in assay [1]; > 100 µM (inactive) in [2]; > 100 µM (inactive) in assay [3]; > 100 µM (inactive) in [4]; 65.9 µM (inactive) in assay [5]; > 100 µM (inactive) in assay [6]. The GI50 was 29 µM (inactive) in [7]; 47.8 µM (inactive) in assay [8]; > 100 µM (inactive) in assay [9]; 23 µM (inactive) in [10]; 65.9 µM (inactive) in assay [11]; > 100 µM (inactive) in [12]. Besides, the GI50 in assay [13] is 69 µM (inactive); in assay [14], 55.5 µM (inactive); in assay [15] it was 35.4 µM (inactive).

Regarding `Cc1ccc(S(=O)OC23CC4CC(CC(C4)C2)C3)cc1` (centres undefined), the GI50 in assay [1] was > 100 µM (inactive); in [2], > 100 µM (inactive); in assay [3], > 100 µM (inactive); in assay [4], 78.5 µM (inactive); in [5] it was 39.2 µM (inactive); in assay [6], 36.8 µM (inactive). Also, the GI50 in assay [7] was > 100 µM (inactive); in assay [8], 84.1 µM (inactive); in [9], > 100 µM (inactive); in assay [10], 41.4 µM (inactive); in [11], 86.1 µM (inactive); in [12] it was > 100 µM (inactive). Also, the GI50 in assay [13] and in [14] was > 100 µM (inactive) each time.

Turning to `Cc1cccc2c1c1ccc3c(c1n2C)C(=O)C=CC3=O`, the GI50 in assay [1] was 4.56 µM (inactive); in [2] it was 2.79 µM (inactive); in [3], 3.2 µM (inactive); in [4] it was 6.35 µM (inactive); in assay [5], 4.94 µM (inactive); in assay [6], 10.3 µM (inactive). Moreover, the GI50 in assay [7] was 1.95 µM (inactive); in assay [8] it was 2.03 µM (inactive); in assay [9], 15.9 µM (inactive); in assay [10] it was 2.04 µM (inactive); in assay [11] it was 14 µM (inactive); in assay [12] it was 16.3 µM (inactive). The GI50 was 6.17 µM (inactive) in [13], 1.94 µM (inactive) in assay [14] and 0.468 µM (active) in [15].

In the case of `C=C(c1ccccc1)[C@@]1(O)CCCC[C@H]1NC(c1ccccc1)c1ccccc1`, the GI50 in assay [1] is 15.9 µM (inactive); in assay [2], 16.3 µM (inactive); in assay [3], 7.67 µM (inactive); in assay [4], 9.64 µM (inactive); in [5], 9.84 µM (inactive); in assay [6], 10.7 µM (inactive). In addition, the GI50 in assay [7] was 7.69 µM (inactive); in assay [8] it was 14.4 µM (inactive); in assay [9], 13.6 µM (inactive); in assay [10], 3.94 µM (inactive); in assay [11], 13.6 µM (inactive); in assay [12], 12.1 µM (inactive). For the same compound, the GI50 in [13] was 14 µM (inactive); in assay [14], 12.7 µM (inactive); in [15], 4.34 µM (inactive).

With `COc1ccc2c(c1)[n+]([O-])c(C(=O)CC(=O)C(=O)Nc1cccc(C)c1C)c(C)[n+]2[O-]`, the GI50 in assay [1], in [2], in assay [3], in [4], in assay [5] and in assay [6] was > 100 µM (inactive) in each case. Further, the GI50 in assay [7], in assay [8], in [9], in assay [10], in assay [11] and in assay [12] was > 100 µM (inactive) each time. The GI50 in [13], in [14] and in assay [15] was > 100 µM (inactive) each time.

For `CC(=O)N1CCN(c2ccc(OCC3COC(Cn4ccnc4)(c4ccc(Cl)cc4Cl)O3)cc2)CC1` (centres undefined) [KETOCONAZOLE], the GI50 in [2] is 37.8 µM (inactive); in assay [3], 35.5 µM (inactive); in [4], 16 µM (inactive); in assay [5] it was 16.9 µM (inactive); in assay [7] it was 28.7 µM (inactive); in assay [8] it was 48 µM (inactive). In addition, the GI50 was 30.3 µM (inactive) in assay [9]; 35.9 µM (inactive) in assay [10]; 52.4 µM (inactive) in assay [13]; 36 µM (inactive) in [14]; 27.6 µM (inactive) in [15].

As to `CCOC(=O)/C(=C\c1ccc(OCc2ccccc2)c(OC)c1)C(=O)c1ccccc1`, the GI50 was 16.7 µM (inactive) in assay [1]; 27.5 µM (inactive) in assay [2]; 24.7 µM (inactive) in assay [3]; 19.7 µM (inactive) in assay [4]; 15.9 µM (inactive) in [5]; 17.3 µM (inactive) in [6]. The GI50 was 19.9 µM (inactive) in assay [7]; 18.4 µM (inactive) in assay [8]; 20.7 µM (inactive) in assay [9]; 27.6 µM (inactive) in assay [10]; 22.3 µM (inactive) in assay [12]; 23 µM (inactive) in [13]. The GI50 is 20 µM (inactive) in assay [14] and 23.6 µM (inactive) in [15].

(Values after ChEMBL document CHEMBL1201862, “PubChem BioAssay data set” (2004).)
